Assays:
[1] = test system: tMCAO mice; test: tMCAO model in mice (neurological deficit score, infarct volume, apoptosis, SG level); assay type: in vivo; settings: for SG levels in the ischemic cortex / ischemic brain tissue: 48 mg kg^−1, i.p.
Procedure: Mice were kept anesthetized during surgery with 1% pentobarbital sodium (50 mg kg^−1, Sigma‐Aldrich, USA) by i.p. injection. Transient ischemia was induced by using the suture occlusion technique according to our previous studies.^[ [10] ^] Expose the common carotid artery area, insert a 6–0 sized silicon rubber‐coated filament into the left internal carotid artery until it reaches the approximate branch of the left middle cerebral artery, and leave it for 1–1.5 h to block blood flow. Then, the suture and the filament were removed, and the wounds were sutured. 24 h after the operation, a series of phenotypic evaluations was conducted on each mouse. The Bederson score was applied according to our previous studies.^[ [10] ^]
(§1) Apoptosis level was evaluated by TUNEL staining and flow cytometry. For TUNEL staining, HT22 cells were treated with 4% paraformaldehyde for 15 min. Then the fixed brain tissue slices and HT22 cells were permeabilized for 5 min using 1% Triton X‐100 (Sigma‐Aldrich, USA) dissolved in PBS. TUNEL staining was executed by following the instructions, using a one‐step TUNEL apoptosis assay kit (Meilunbio, China). Red fluorescence was utilized to identify apoptotic cells, while 4′, 6‐diamidino‐2‐phenylindole (DAPI) was used to counterstain the nuclei. The fluorescence microscope (Carl Zeiss, Germany) was used to obtain images. For flow cytometry, apoptotic cells were determined with the Annexin V‐Alexa Fluor 488/PI apoptosis detection kit (Yeasen, China) by following the instructions. EDTA‐free trypsin (Gibco, USA) was added to HT22 cells (2.5 × 10^5 cells). The cells were collected and washed with pre‐cooling PBS 2 times, then suspended in 250 µL 1× binding buffer. 100 µL cell suspension was dyed with 5 µL Annexin V‐Alexa Fluor 488 and 10 µL PI and plunged into darkness at room temperature for 15 min. Then the cell suspension was mixed with 400 µL of 1× binding buffer. Cell apoptosis was immediately determined by Cytek Aurora (Cytek Biosciences, USA).
(§2) Cells and tissues were homogenized in RIPA buffer (Beyotime, China) containing protease inhibitors (Biovision, USA) on ice for 30 min. After centrifugation (13000 r min^−1, 4 °C) for 10 min, the resulting supernatant was collected. The protein concentrations were determined by a BCA protein assay kit (Thermo Scientific, USA). After separating a 10% sodium dodecyl sulfate (SDS)‐polyacrylamide gel, protein on the gel was then transferred onto nitrocellulose membranes (Merck, USA), which were blocked with 5% bovine serum albumin for 1 h to prevent non‐specific binding. Then, the anti‐caspase 3 antibody (catalog no. 9662, Cell Signaling Technology, USA), anti‐Bcl‐2 antibody (catalog no. GTX100064, GeneTex, USA), anti‐G3BP1 antibody (catalog no. 66486‐1‐Ig, Proteintech, China), anti‐β‐tubulin antibody (catalog no. 66240‐1‐Ig, Proteintech, China), and anti‐β‐actin antibody (catalog no. 66009‐1‐Ig, Proteintech, China) were used for treating the membrane overnight at 4 °C. Bound antibodies were detected with the species‐appropriate horseradish peroxidase‐labeled secondary antibody (Jackson ImmunoResearch, USA) using ECL reagents (ShareBio, China). Protein‐specific signals were detected using a Bio‐Rad Imager (Bio‐Rad, USA), and the bands were quantified by densitometric analysis software (ImageJ). β‐tubulin or β‐actin was used as a loading control.
Cerebral infarction volume was evaluated by Nissl staining or 2,3,5‐triphenyltetrazolium chloride staining. The infarct volume was computed using image‐processing software (Image J), and the percentage of the infarct volume was calculated according to our previous studies.^[ [10] ^] For Nissl staining, the fixed brain tissue slices were washed twice with ultrapure water for 2 min each time. Next, they were stained with Nissl staining solution (Beyotime, China) at 37 °C for 10 min, washed twice with ultrapure water, washed once with 95% ethanol, and washed twice with 70% ethanol. […]

[2] = test system: HT22 cells under OGD/R injury; test: Apoptosis level of HT22 cells under OGD/R (TUNEL staining and immunoblotting); assay type: cell-based
Procedure: (§3) HT22 cells were washed with phosphate buffered saline (PBS), then DMEM sugar‐free medium (Gibco, USA) was added and placed in the anaerobic incubator of 5% CO2, 1% O2, and 37 °C for 6 h. PB3 or other compounds were previously dissolved in DMEM/F‐12 with 10% FBS and 1% penicillin/streptomycin. After undergoing OGD for 6 h, the medium was replaced by DMEM/F‐12 with 10% FBS and 1% penicillin/streptomycin containing PB3 or other compounds and kept in a humidified 5% CO2, 37 °C incubator for 24 h.
as §1, §2

[3] = test system: OGD/R‐treated HT22 cells; test: Neuroprotective effect on OGD/R-treated HT22 cells, cell viability by CCK-8; assay type: cell-based; settings: 6 h OGD; for viability at 2 µM / viability at 20 µM: Mus musculus, HT-22, 24 h reoxygenation with compound, relative to control cells, mean ± S.D., n = 3
Procedure: as §3
The CCK‐8 assay kit (Yeasen, China) was used to assess cell viability. All operations were performed following instructions. HT22 cells were seeded into the 96‐well plate (3000 cells per well). The cells were cultured at 37 °C with 5% CO2 in a humidified incubator overnight. After 6 h of OGD, the medium was replaced by DMEM/F‐12 with 10% FBS and 1% penicillin/streptomycin containing PB3 or other compounds and kept in a humidified 5% CO2, 37 °C incubator for 24 h. Then, the cells were washed with PBS, the medium was replaced with DMEM/F‐12 with 10% FBS and 1% penicillin/streptomycin containing 10% CCK‐8 solution, and incubated for 1 h at 37 °C. The absorbance was assessed by a Synergy H1 multi‐mode microplate reader (BioTek, USA) at 450 nm.

[4] = 48 mg kg^−1 i.p., compared to the model group
[5] = 50 and 100 µM, compared with the model group
[6] = 50 µM, compared with the model group

Oc1cc(O)c2c(c1)O[C@H](c1ccc(O)c(O)c1)[C@@H](O)[C@@H]2c1c(O)cc(O)c2c1O[C@H](c1ccc(O)c(O)c1)[C@@H](O)C2 [Compound 1, procyanidin B3]
SG levels in the ischemic cortex / ischemic brain tissue [1]: significantly enhanced SG levels | neurological deficit score ([1]; 48 mg kg^−1 i.p., 1.5 h MCAO, 24 h after reperfusion): improved neurological deficits | infarct volume ([1]; 48 mg kg^−1 i.p., 1.5 h MCAO, 24 h reperfusion, Nissl staining): significantly reduced | apoptosis level (TUNEL staining of frozen brain sections) [1, 4]: significantly reduced | expression level of Bcl‐2 in the ischemic cortex [1, 4]: increased | expression level of cleaved caspase‐3 in the ischemic cortex [1, 4]: decreased | expression of Bcl‐2 [2, 5]: significantly increased | expression of cleaved caspase‐3 [2, 5]: significantly decreased | rate of TUNEL‐positive cells ([2]; HT22, OGD/R, different concentrations): dose‐dependently reduced | viability at 2 µM [3]: 63.9 ± 3.36% | viability at 20 µM [3]: 70.9 ± 6.71% | cell viability rate ([3]; PB3 at 20 to 400 µM, 24 h treatment): significantly improve cell viability rate

CC(C)c1c(O)cc(O)c2c1O[C@H](c1ccc(O)c(O)c1)[C@@H](O)[C@@H]2c1c(O)cc(O)c2c1O[C@H](c1ccc(O)c(O)c1)[C@@H](O)C2 [Compound 6c, 8‐Isopropyl‐(+)‐Catechin‐(4α,8)‐(+)‐Catechin]
SG levels in the ischemic cortex / ischemic brain tissue [1]: mediate SG upregulation | neuroprotective activity compared with the model group ([1]; 48 mg kg^−1, 1.5 h of MCAO and 24 h of reperfusion): best neuroprotective activity | reduction of infarct volume ([1]; 1 h ischemia, i.p. injection after reperfusion, 24 h after reperfusion): ≈ 30% | neurological deficit score ([1]; 1 h ischemia, i.p. injection after reperfusion, 24 h after reperfusion, preliminary screening): more pronounced trend toward improving neurological deficits | infarct area and neurological function at different doses ([1]; 1.5 h of MCAO and 24 h of reperfusion): therapeutic effect on ischemic injury in a dose‐dependent manner | expression of Bcl‐2 [2, 6]: increase the expression of Bcl‐2 | expression of cleaved caspase‐3 [2, 6]: decrease the expression of cleaved caspase‐3 | rate of TUNEL‐positive cells [2, 6]: reduce the rate of TUNEL‐positive cells | viability at 2 µM [3]: 66 ± 1.97% | viability at 20 µM [3]: 83.6 ± 4.34%

Source: PMC12677652, “Procyanidin B3 and Its Derivatives Alleviate Neuronal Injury by Targeting G3BP1 for Ischemic Stroke Therapy” (Advanced Science, 2025)
